Data as given in ChEMBL document CHEMBL2203104, “Recent advances in antitubercular natural products” (Eur J Med Chem, 2012).
Converted amounts (≈) assume the structure as drawn.

System: Mycobacterium tuberculosis
Assay: Antimycobacterial activity against rifampicin-resistant Mycobacterium tuberculosis
Type: functional

| SMILES | MIC |
| --- | --- |
| C/C=C(/NC(=O)c1csc(-c2csc(-c3ccc4c(n3)-c3csc(n3)C(C(C)(O)C(C)O)NC(=O)c3csc(n3)C(C(C)C)NC(=O)c3csc(n3)/C(=C/OC)NC(=O)C(C(C)O)NC(=O)c3csc-4n3)n2)n1)C(=O)OC (stereo not given) [NOCARDITHIOCIN] | 0.025 µg/mL (≈ 0.0215 µM) |

System: Mycobacterium tuberculosis
Assay: Antimycobacterial activity against multidrug-resistant Mycobacterium tuberculosis
Type: functional

| SMILES | MIC |
| --- | --- |
| CC(=O)O[C@H]1C2=C(C(=O)C(OC(=O)c3ccc(Cl)cc3)=C(C(C)C)C2=O)[C@@]2(C)CCCC(C)(C)[C@@H]2[C@@H]1O | 0.78 µg/mL (≈ 1.47 µM) |
| CC(C)C1=C(O)C(=O)C2=C(C1=O)[C@H](O)[C@@H](O)[C@H]1C(C)(C)CCC[C@]21C | 12.5 µg/mL (≈ 35.9 µM) |
| CC(=O)O[C@H]1C2=C(C(=O)C(O)=C(C(C)C)C2=O)[C@@]2(C)CCCC(C)(C)[C@@H]2[C@@H]1O | 3.12 µg/mL (≈ 7.99 µM) |
| COc1ccc(C(=O)OC2=C(C(C)C)C(=O)C3=C(C2=O)[C@@]2(C)CCCC(C)(C)[C@@H]2[C@H](O)[C@H]3OC(C)=O)cc1 | 0.39 µg/mL (≈ 0.743 µM) |
| C=C(C)C(CC[C@@H](C)[C@H]1CC[C@@]2(C)[C@@H]3CC[C@H]4C(C)(C)[C@@H](O)CC[C@@]45C[C@@]35CC[C@]12C)OO (stereo not given in full) | 25 µg/mL (≈ 54.5 µM) |
| C[C@H](C/C=C/C(C)(C)OO)[C@H]1CC[C@@]2(C)[C@@H]3CC[C@H]4C(C)(C)[C@@H](O)CC[C@@]45C[C@@]35CC[C@]12C | 12.5 µg/mL (≈ 27.2 µM) |
| CC(C)C1=C(O)C(=O)C2=C(C=C[C@H]3C(C)(C)CCC[C@]23C)C1=O | 12.5 µg/mL (≈ 39.8 µM) |
| CC(C)C1=C(O)C(=O)C2=C(C1=O)[C@H](O)C[C@H]1C(C)(C)CCC[C@]21C [HORMINONE] | 12.5 µg/mL (≈ 37.6 µM) |

System: not listed separately
Assay: Selectivity index, ratio of IC50 for african green monkey Vero cells to MIC for multidrug-resistant Mycobacterium tuberculosis
Type: functional

| SMILES | Selectivity Index |
| --- | --- |
| COc1ccc(C(=O)OC2=C(C(C)C)C(=O)C3=C(C2=O)[C@@]2(C)CCCC(C)(C)[C@@H]2[C@H](O)[C@H]3OC(C)=O)cc1 | 6.6 |
